The numbers were not newly measured in US6989450B2 (priority 2000, dated 2006), which cites them from elsewhere.

Where two headings read alike, the source gives them in different places.

Data set [1] has as its system multidrug resistant cell lines.
Data set [2] deals with P-glycoprotein expressing KBV-1 cells. As to conditions: P-glycoprotein (MDR protein) expressing KBV-1 cells.
For data set [3] the following is noted: water solubility; comparison with taxol.
Data set [4] has as its target microtubule, or polymeric, form of tubulin. The conditions noted are these: binding to polymeric tubulin.

Take `C/C(=C\c1csc(C)n1)[C@@H]1C[C@@H]2O[C@@H]2CCC[C@H](C)[C@H](O)[C@@H](C)C(=O)C(C)(C)[C@@H](O)CC(=O)O1` [Epothilone A]: the “potency relative to Taxol” value in data set [1] is on record as “thousand-fold more potent”.
As to `C/C(=C\c1csc(C)n1)[C@@H]1C[C@@H]2O[C@]2(C)CCC[C@H](C)[C@H](O)[C@@H](C)C(=O)C(C)(C)[C@@H](O)CC(=O)O1` [Epothilone B], the IC50 (in general, the concentration needed to halve the response being measured) in data set [2] was 0.058 µM. Further, in data set [3], the solubility result is given as “better solubility than taxol”. The “potency relative to Taxol” value in data set [1] (multidrug resistant cell lines / cancerous cells with acquired multiple drug resistance) is given as “thousand-fold more active than Taxol”; in data set [1] (multidrug resistant cell lines / cancerous cells with acquired multiple drug resistance, listed as 1), “thousand-fold more potent”.
Turning to `CC(=O)O[C@H]1C(=O)[C@@]2(C)[C@H]([C@H](OC(=O)c3ccccc3)[C@]3(O)C[C@H](OC(=O)[C@H](O)[C@@H](NC(=O)c4ccccc4)c4ccccc4)C(C)=C1C3(C)C)[C@]1(OC(C)=O)CO[C@@H]1C[C@@H]2O` [Taxol], the IC50 in data set [2] is 23 µM. The KD result in data set [4] is reported as “micromolar”.
